The values below come from US10851108B2, “Substituted bicyclic heterocyclic compounds” (BRISTOL-MYERS SQUIBB COMPANY, priority 2016, dated 2020).

By IC50 is commonly meant the concentration needed to halve the response being measured.

This test addresses hROMK (human Kir1.1) (Homo sapiens (Human), UniProt P48048). The experiment in a line: Thallium Flux Assay. It counts as cell-based. The following applies: CHO T-Rex hROMK stable cell line, 10-point concentration response; read-out: hROMK Th+ Flux IC50. The protocol:
Solutions and reagents: Thallium flux assay was performed using FluxOR kit (F10017, Life Technologies). Loading buffer, assay buffer and stimulus buffer were prepared using kit components. HBSS (Hank's balanced salt solution, Cat #14025-092) was purchased separately from Life Technologies.
To prepare 10 ml of loading buffer: 10 μl of FluxOR dye (reconstituted in DMSO) was first added to 100 μl of powerload concentrate and this mix along with 100 μl of Probenicid (100×) was then added to 9.79 ml of HBSS. Assay buffer (10 ml) was prepared by addition of 2 ml of FluxOR chloride free buffer (5×), 100 μl of Probenicid (100×), and 0.2 ml of Ouabain (13.77 mM) to 7.7 ml of deionized water. Stimulus buffer was composed of 15 mM Tl2SO4, 0.75 mM K2SO4 in FluxOR chloride free buffer (diluted to 1× using deionized water). The final concentration of Tl2SO4 and K2SO4 in the assay plate was 3 mM and 0.15 mM, respectively.
Plating and induction of cells: The CHO T-Rex hROMK (human Kir1.1) stable cell line was maintained in Ham's F12 media supplemented with 10% FBS, 1% Penicillin-Streptomycin, 500 μg/ml Zeocin and 10 μg/ml Blasticidin at 37° C. in a 5% CO2 incubator. One day before the experiment, the cells were dissociated by incubation with Versene solution (15040-066, Life Technologies) for 10 minutes at 37° C. followed by addition of growth media. The cell suspension was centrifuged at 1200 rpm for 5 min. After discarding the supernatant, the cells were resuspended in fresh growth media and cell concentration was determined using a hemocytometer. Next, 0.5 μg/ml of Doxycycline was added to the cell suspension to induce hROMK channel expression and 50 μl (10,000 cells/well) of cell suspension was added to each well of a poly-D lysine coated 384 well black, optically clear bottom plate (6007718, Perkin Elmer). The assay plate was kept at 37° C. in a 5% CO2 incubator.
Assay protocol: On the day of experiment, media was removed and loading buffer was added (30 μl/well) to the assay plate. The cells were incubated in the loading buffer for 30 minutes at 37° C. The loading buffer was then replaced by assay buffer (30 μl/well) followed by addition of test compounds or controls. The cells were incubated with compounds for 30 minutes and the plate was then mounted on FlexStation (Molecular Devices) for fluorescence read out with excitation and emission wavelengths at 488 and 525 nm, respectively. Each well was read for 90 sec at 2 sec interval and the stimulus buffer was added after 20 seconds of baseline recording. The final DMSO concentration was either 0.5 or 1% in the assay plate. […] controls were defined by addition of DMSO or 3 μM of a standard ROMK inhibitor, respectively, to the wells instead of a test compound.
A 10-point concentration response curve was used to estimate the IC50 value of test compounds.
The data in Table 3 is reported with two significant figures.

Chain of hROMK (human Kir1.1) (P48048 whole entry): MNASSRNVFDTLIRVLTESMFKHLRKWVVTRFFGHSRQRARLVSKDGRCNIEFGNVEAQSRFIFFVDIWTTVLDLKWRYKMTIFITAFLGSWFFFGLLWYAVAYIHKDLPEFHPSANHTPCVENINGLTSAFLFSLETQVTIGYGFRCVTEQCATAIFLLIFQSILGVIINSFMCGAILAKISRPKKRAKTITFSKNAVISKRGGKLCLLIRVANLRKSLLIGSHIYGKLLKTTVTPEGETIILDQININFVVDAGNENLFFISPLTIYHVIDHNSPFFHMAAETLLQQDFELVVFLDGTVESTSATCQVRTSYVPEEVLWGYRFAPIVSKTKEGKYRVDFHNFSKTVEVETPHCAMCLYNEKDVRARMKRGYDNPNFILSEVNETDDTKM

On to `Cc1c(C(O)CN2CCc3nc(-n4ccc5c(C#N)cccc54)ncc3C2)ccc2c1COC2=O` (single isomer, unassigned) [Example 1-II, 1-(6-(2-hydroxy-2-(4-methyl-1-oxo-1,3-dihydroisobenzofuran-5-yl)ethyl)-5,6,7,8-tetrahydropyrido[4,3-d]pyrimidin-2-yl)-1H-indole-4-carbonitrile], for which the IC50 came to 460 nM.
Under `Cn1c(=O)oc2ccc(C(O)CN3CCc4nc(-n5ncc6c(C#N)cccc65)ncc4C3)cc21` (single isomer, unassigned) [Example 3-I, 1-(6-(2-hydroxy-2-(3-methyl-2-oxo-2,3-dihydrobenzo[d]oxazol-5-yl)ethyl)-5,6,7,8-tetrahydropyrido[4,3-d]pyrimidin-2-yl)-1H-indazole-4-carbonitrile] stands 740 nM; under `Cn1c(=O)oc2ccc(C(O)CN3CCc4nc(-n5ncc6c(C#N)cccc65)ncc4C3)cc21` (single isomer, unassigned) [Example 3-II, 1-(6-(2-hydroxy-2-(3-methyl-2-oxo-2,3-dihydrobenzo[d]oxazol-5-yl)ethyl)-5,6,7,8-tetrahydropyrido[4,3-d]pyrimidin-2-yl)-1H-indazole-4-carbonitrile], 1600 nM.
With `Cc1c(C(O)CN2CCc3nc(-n4cc(C#N)c5ccccc54)ncc3C2)ccc2c1COC2=O` (single isomer, unassigned) [Example 8-II, 1-(6-(2-hydroxy-2-(4-methyl-1-oxo-1,3-dihydroisobenzofuran-5-yl)ethyl)-5,6,7,8-tetrahydropyrido[4,3-d]pyrimidin-2-yl)-1H-indole-3-carbonitrile], the IC50 is 83 nM.
Under `Cc1c(C(CO)N2CCc3nc(-n4cc(C#N)c5ccccc54)ncc3C2)ccc2c1COC2=O` (single isomer, unassigned) [Example 9-I, 1-(6-(2-hydroxy-1-(4-methyl-1-oxo-1,3-dihydroisobenzofuran-5-yl)ethyl)-5,6,7,8-tetrahydropyrido[4,3-d]pyrimidin-2-yl)-1H-indole-3-carbonitrile] stands 3000 nM; under `Cc1c(C(CO)N2CCc3nc(-n4cc(C#N)c5ccccc54)ncc3C2)ccc2c1COC2=O` (single isomer, unassigned) [Example 9-II, 1-(6-(2-hydroxy-1-(4-methyl-1-oxo-1,3-dihydroisobenzofuran-5-yl)ethyl)-5,6,7,8-tetrahydropyrido[4,3-d]pyrimidin-2-yl)-1H-indole-3-carbonitrile], 1800 nM; under `Cc1c(C(O)CN2CCc3nc(-n4ncc5c(C#N)cccc54)ncc3C2)ccc2c1COC2=O` (single isomer, unassigned) [Example 12-I, 1-(6-(2-hydroxy-2-(4-methyl-1-oxo-1,3-dihydroisobenzofuran-5-yl)ethyl)-5,6,7,8-tetrahydropyrido[4,3-d]pyrimidin-2-yl)-1H-indazole-4-carbonitrile], 38 nM.
Take `Cc1c(C(O)CN2CCc3nc(-n4ncc5c(C#N)cccc54)ncc3C2)ccc2c1COC2=O` (single isomer, unassigned) [Example 12-II, 1-(6-(2-hydroxy-2-(4-methyl-1-oxo-1,3-dihydroisobenzofuran-5-yl)ethyl)-5,6,7,8-tetrahydropyrido[4,3-d]pyrimidin-2-yl)-1H-indazole-4-carbonitrile]: the IC50 turned out to be 410 nM.
For `Cc1c(C(O)CN2CCc3nc(-n4ccc5cc(C#N)ccc54)ncc3C2)ccc2c1COC2=O` (single isomer, unassigned) [Example 16-II, 1-(6-(2-hydroxy-2-(4-methyl-1-oxo-1,3-dihydroisobenzofuran-5-yl)ethyl)-5,6,7,8-tetrahydropyrido[4,3-d]pyrimidin-2-yl)-1H-indole-5-carbonitrile], the IC50 was found to be 380 nM.
As to `N#Cc1ccc2c(ccn2-c2ncc3c(n2)CCN(CC(O)c2ccc4c(c2)COC4=O)C3)c1` (single isomer, unassigned) [Example 17-I, 1-(6-(2-hydroxy-2-(1-oxo-1,3-dihydro-isobenzofuran-5-yl)ethyl)-5,6,7,8-tetrahydropyrido[4,3-d]pyrimidin-2-yl)-1H-indole-5-carbonitrile], the IC50 stood at 340 nM.
As for `N#Cc1ccc2c(ccn2-c2ncc3c(n2)CCN(CC(O)c2ccc4c(c2)COC4=O)C3)c1` (single isomer, unassigned) [Example 17-II, 1-(6-(2-hydroxy-2-(1-oxo-1,3-dihydro-isobenzofuran-5-yl)ethyl)-5,6,7,8-tetrahydropyrido[4,3-d]pyrimidin-2-yl)-1H-indole-5-carbonitrile], the IC50 was 850 nM.
Turning to `N#Cc1cccc2c1ccn2-c1ncc2c(n1)CCN(CC(O)c1ccc3c(c1)COC3=O)C2` (single isomer, unassigned) [Example 18-II, 1-(6-(2-hydroxy-2-(1-oxo-1,3-dihydro-isobenzofuran-5-yl)ethyl)-5,6,7,8-tetrahydropyrido[4,3-d]pyrimidin-2-yl)-1H-indole-4-carbonitrile], the IC50 was determined as 580 nM.
Regarding `Cc1c(C(O)CN2CCc3nc(-n4ccc5c(C#N)ccnc54)ncc3C2)ccc2c1COC2=O` (single isomer, unassigned) [Example 19-I, 1-(6-(2-hydroxy-2-(4-methyl-1-oxo-1,3-dihydroisobenzofuran-5-yl)ethyl)-5,6,7,8-tetrahydropyrido[4,3-d]pyrimidin-2-yl)-1H-pyrrolo[2,3-b]pyridine-4-carbonitrile], the IC50 is 460 nM.
On to `Cc1c(C(O)CN2CCc3nc(-n4ccc5c(C#N)ccnc54)ncc3C2)ccc2c1COC2=O` (single isomer, unassigned) [Example 19-II, 1-(6-(2-hydroxy-2-(4-methyl-1-oxo-1,3-dihydroisobenzofuran-5-yl)ethyl)-5,6,7,8-tetrahydropyrido[4,3-d]pyrimidin-2-yl)-1H-pyrrolo[2,3-b]pyridine-4-carbonitrile], for which the IC50 turned out to be 1900 nM.
Take `Cn1c(=O)oc2ccc(C(O)CN3CCc4nc(-n5ccc6c(C#N)cccc65)ncc4C3)cc21` (single isomer, unassigned) [Example 22-I, 1-(6-(2-hydroxy-2-(3-methyl-2-oxo-2,3-dihydrobenzo[d]oxazol-5-yl)ethyl)-5,6,7,8-tetrahydropyrido[4,3-d]pyrimidin-2-yl)-1H-indole-4-carbonitrile]: the IC50 was 1000 nM.
Under `Cn1c(=O)oc2ccc(C(O)CN3CCc4nc(-n5ccc6c(C#N)cccc65)ncc4C3)cc21` (single isomer, unassigned) [Example 22-II, 1-(6-(2-hydroxy-2-(3-methyl-2-oxo-2,3-dihydrobenzo[d]oxazol-5-yl)ethyl)-5,6,7,8-tetrahydropyrido[4,3-d]pyrimidin-2-yl)-1H-indole-4-carbonitrile] stands 700 nM; under `Cc1c(C(CO)N2CCc3nc(Nc4ccc(C#N)c(F)c4)ncc3C2)ccc2c1COC2=O` (single isomer, unassigned) [Example 29-I, 2-fluoro-4-((6-(2-hydroxy-1-(4-methyl-1-oxo-1,3-dihydroisobenzofuran-5-yl)ethyl)-5,6,7,8-tetrahydropyrido [4,3-d]pyrimidin-2-yl)amino)benzonitrile], 3000 nM.
For the compound `Cc1c(C(CO)N2CCc3nc(Nc4ccc(C#N)c(F)c4)ncc3C2)ccc2c1COC2=O` (single isomer, unassigned) [Example 29-II, 2-fluoro-4-((6-(2-hydroxy-1-(4-methyl-1-oxo-1,3-dihydroisobenzofuran-5-yl)ethyl)-5,6,7,8-tetrahydropyrido [4,3-d]pyrimidin-2-yl)amino)benzonitrile], the IC50 is 2100 nM.
